For one assay, the target named is Mcl-1/Bim interaction (Homo sapiens (Human), UniProt Q07820). Nature of the assay: Cell Free Mcl-1: Bim Affinity Assay (Mcl-1 HTRF). The conditions noted are these: TR-FRET, recombinant human Mcl-1(171-327), biotin-Bim(51-76); read-out: Mel-1 HTRF IC50. Type of assay: binding. How it is done:
Cell Free Mcl-1: Bim Affinity Assay (Mcl-1 HTRF)
The inhibition of the Mcl-1/Bim interaction was measured using a time-resolved fluorescence resonance energy transfer (TR-FRET) assay. The recombinant human Mcl-1 (C-terminally 6×His tagged Mcl-1 containing residues 171-327) was generated at Amgen Inc (Thousand Oaks, Calif.). A biotinylated peptide derived from human Bim (residues 51-76) was purchased from CPC Scientific (San Jose, Calif.). The TR-FRET assay was conducted in a 384-well white OptiPlate™ (PerkinElmer, Waltham, Mass.) in a total volume of 40 μL. The reaction mixture contained 0.1 nM Mcl-1(171-327), 0.05 nM biotin-Bim(51-76), 0.05 nM LANCER Eu-W1024 Anti-6×His (PerkinElmer), 0.072 nM Streptavidin-Xlent (Cisbio, Bedford, Mass.), and serially diluted test compounds in the binding buffer of 20 mM Hepes, pH 7.5, 150 mM NaCl, 0.016 mM Brij©35, and 1 mM dithiothreitol. Test compounds were pre-incubated with Mcl-1(171-327) and biotin-Bim (51-76) for 60 min before addition of the detection mixture (LANCE Eu-W1024 Anti-6×His and Streptavidin-Xlent). The reaction plates were further incubated overnight and then were read on an Envision® multimode reader (PerkinElmer). Fluorescence signals were measured at 620 nm (40-nm bandwidth) and 665 nm (7.5-nm bandwidth) with a 60 μs delay after excitation at 320 nm (75-nm bandwidth). The signal ratio at 665/620 nm corresponded to the Mcl-1/Bim interaction and was used in all data analyses. The IC50 values of test compounds were determined from duplicate data by analyzing competition curves using a four-parameter sigmoidal model in GraphPad Prism (GraphPad Software, San Diego, Calif.) or in Genedata Screener® (Genedata, Basel, Switzerland).

The next assay has as its system OPM-2. The assay can be described thus: Cell Viability Assay (OPM-2 10 FBS). Type of assay: cell-based, human. Conditions: OPM-2 cells, CellTiter-Glo, read-out: OPM-2 10% FBS IC50 IP. How it is done: Cell Viability Assay (OPM-2 10 FBS)
The human multiple myeloma cell line, OPM-2, was cultured in complete growth medium containing RPMI 1640 and 10% fetal bovine serum (FBS). Cells were seeded into 384-well plates at 3000 cells/well density in complete growth medium containing 10% FBS, and incubated for 16 h with serially diluted test compounds in a 37° C. incubator with 5% CO2. Cell viability was tested using CellTiter-Glo® assay (Promega, Madison, Wis.) according to the manufacturer recommendations. Luminescence was determined using an EnVision® Multilabel plate reader 25 min after the addition of detection reagent. IC50 values were then calculated with Xlfit using a logistical 4-parameter fit model in GraphPad Prism (GraphPad Software, San Diego, Calif.) or in Genedata Screener® (Genedata, Basel, Switzerland).
A general note: ATP-based viability assays read luminescence as a measure of living cells.

The values below come from patent US11364248B2 (AMGEN INC., priority 2017, dated 2022).

Read-outs that look alike come from different tables or passages of the source.

Chain of Mcl-1/Bim interaction (Q07820 171-327): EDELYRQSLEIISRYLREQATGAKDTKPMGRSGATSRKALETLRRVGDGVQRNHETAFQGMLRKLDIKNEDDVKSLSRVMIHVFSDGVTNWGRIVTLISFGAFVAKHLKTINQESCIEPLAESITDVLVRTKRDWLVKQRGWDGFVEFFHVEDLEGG

As usually defined, the IC50 is the midpoint of a concentration-inhibition curve. Consider `C[C@@H]1[C@@H](C)CCC[C@@H]([C@H]2OC[C@@H](N(C)C)CO2)[C@@H]2CC[C@H]2CN2C[C@@]3(CCCc4cc(Cl)ccc43)COc3ccc(cc32)C(=O)NS1(=O)=O` (relative stereo) [Example 2, (1S,3′R,6′R,7′R,11′S,12′R)-6-CHLORO-7′-(CIS-5-(DIMETHYLAMINO)-1,3-DIOXAN-2-YL)-11′,12′-DIMETHYL-3,4-DIHYDRO-2H,15′H-SPIRO[NAPHTHALENE-1,22′-[20]OXA[13]THIA[1,14]DIAZATETRACYCLO[14.7.2.0˜3,6˜.0˜19,24-]PENTACOSA[16,18,24]TRIEN]-15′-ONE 13′,13′-DIOXIDE], for which the IC50 is 1.6 nM on Mcl-1/Bim interaction and 367 nM in the assay on OPM-2 (16 h).

On to `C[C@@H]1[C@@H](C)CCC[C@@H]([C@H]2OC[C@H](N(C)C)CO2)[C@@H]2CC[C@H]2CN2C[C@@]3(CCCc4cc(Cl)ccc43)COc3ccc(cc32)C(=O)NS1(=O)=O` (relative stereo) [Example 6, (1S,3′R,6′R,7′R,11′S,12′R)-6-CHLORO-7′-(TRANS-5-(DIMETHYLAMINO)-1,3-DIOXAN-2-YL)-11′,12′-DIMETHYL-3,4-DIHYDRO-2H,15′H-SPIRO[NAPHTHALENE-1,22′-[20]OXA[13]THIA[1,14]DIAZATETRACYCLO[14.7.2.0˜3,6˜.0˜19,24˜]PENTACOSA[16,18,24]TRIEN]-15′-ONE 13′,13′-DIOXIDE], for which the IC50 at Mcl-1/Bim interaction worked out at 2.09 nM; in the assay with OPM-2 (Homo sapiens, OPM-2, 16 h), 557 nM.

As to `C[C@@H]1[C@@H](C)CCC[C@H]([C@H]2OC[C@H](N)CO2)[C@@H]2CC[C@H]2CN2C[C@@]3(CCCc4cc(Cl)ccc43)COc3ccc(cc32)C(=O)NS1(=O)=O` (relative stereo) [Example 17], the IC50 came out at 0.645 nM on Mcl-1/Bim interaction and 194 nM with OPM-2 (16 h).

For `C[C@@H]1[C@@H](C)CCC[C@H]([C@H]2OC[C@H](N)CO2)[C@@H]2CC[C@H]2CN2C[C@@]3(CCCc4cc(Cl)ccc43)COc3ccc(cc32)C(=O)NS1(=O)=O` (relative stereo) [Example 18], the IC50 was found to be 1.37 nM on Mcl-1/Bim interaction and 1050 nM in the assay with OPM-2 (16 h).

Turning to `CN[C@H]1CO[C@@H]([C@H]2CCC[C@H](C)[C@@H](C)S(=O)(=O)NC(=O)c3ccc4c(c3)N(C[C@@H]3CC[C@H]32)C[C@@]2(CCCc3cc(Cl)ccc32)CO4)OC1` (relative stereo) [Example 41], the IC50 at Mcl-1/Bim interaction is 7.99 nM; in the assay on OPM-2 (16 h) it was 7070 nM.

Turning to `CN[C@H]1CO[C@@H]([C@H]2CCC[C@H](C)[C@@H](C)S(=O)(=O)NC(=O)c3ccc4c(c3)N(C[C@@H]3CC[C@H]32)C[C@@]2(CCCc3cc(Cl)ccc32)CO4)OC1` (relative stereo) [Example 42], the IC50 on Mcl-1/Bim interaction came to 0.617 nM; in the assay with OPM-2 (16 h), 217 nM.

For `C[C@@H]1[C@@H](C)CCC[C@H]([C@H]2OC[C@H](N3C(=O)c4ccccc4C3=O)CO2)[C@@H]2CC[C@H]2CN2C[C@@]3(CCCc4cc(Cl)ccc43)COc3ccc(cc32)C(=O)NS1(=O)=O` (relative stereo) [Example 44], the IC50 was 2.08 nM on Mcl-1/Bim interaction and > 33300 nM in the assay with OPM-2 (16 h).

With `CCN(C)[C@H]1CO[C@@H]([C@H]2CCC[C@H](C)[C@@H](C)S(=O)(=O)NC(=O)c3ccc4c(c3)N(C[C@@H]3CC[C@H]32)C[C@@]2(CCCc3cc(Cl)ccc32)CO4)OC1` (relative stereo) [Example 46], the IC50 at Mcl-1/Bim interaction stood at 0.34 nM; in the assay with OPM-2 (16 h) it was 47 nM.

Turning to `C[C@@H]1[C@@H](C)CCC[C@H]([C@H]2OC[C@@H](N3CC4(COC4)C3)CO2)[C@@H]2CC[C@H]2CN2C[C@@]3(CCCc4cc(Cl)ccc43)COc3ccc(cc32)C(=O)NS1(=O)=O` (relative stereo) [Example 59], the IC50 came out at 0.319 nM at Mcl-1/Bim interaction and 90 nM with OPM-2 (16 h).

As to `C[C@@H]1[C@@H](C)CCC[C@H]([C@H]2OC[C@@](CO)(N(C)C)CO2)[C@@H]2CC[C@H]2CN2C[C@@]3(CCCc4cc(Cl)ccc43)COc3ccc(cc32)C(=O)NS1(=O)=O` (relative stereo) [Example 81, (1S,3′R,6′R,7′S,11′S,12′R)-6-chloro-7′-(cis-5-(dimethylamino)-5-(hydroxymethyl)-1,3-dioxan-2-yl)-11′,12′-dimethyl-3,4-dihydro-2H,15′H-spiro[naphthalene-1,22′-[20]oxa[13]thia[1,14]diazatetracyclo [14.7.2.0~3,6~.0~19,24~]pentacosa[16,18,24]trien]-15′-one 13′,13′-dioxide], the results for the IC50 on Mcl-1/Bim interaction and in the assay with OPM-2 (16 h) were 3.32 nM and 2540 nM, respectively.

In the case of `C[C@@H]1[C@@H](C)C/C=C/[C@@H]([C@H]2OC[C@H](N(C)C)CO2)[C@@H]2CC[C@H]2CN2C[C@@]3(CCCc4cc(Cl)ccc43)COc3ccc(cc32)C(=O)NS1(=O)=O` (relative stereo) [Example 96], the IC50 at Mcl-1/Bim interaction was determined as 0.459 nM; in the assay on OPM-2 (16 h) it was 314 nM.

Consider `C[C@@H]1[C@@H](C)C/C=C/[C@H]([C@H]2OC[C@@H](N(C)C)CO2)[C@@H]2CC[C@H]2CN2C[C@@]3(CCCc4cc(Cl)ccc43)COc3ccc(cc32)C(=O)NS1(=O)=O` (relative stereo) [Example 97], for which the IC50 on Mcl-1/Bim interaction is 0.308 nM; in the assay with OPM-2 (16 h), 84 nM.

On to `CO[C@H]1CO[C@@H]([C@@H]2CCC[C@H](C)[C@@H](C)S(=O)(=O)NC(=O)c3ccc4c(c3)N(C[C@@H]3CC[C@H]32)C[C@@]2(CCCc3cc(Cl)ccc32)CO4)OC1` (single isomer, unassigned) [Example 25], for which the IC50 is 0.473 nM on Mcl-1/Bim interaction and 903 nM in the assay on OPM-2 (16 h).

For `CO[C@H]1CO[C@@H]([C@@H]2CCC[C@H](C)[C@@H](C)S(=O)(=O)NC(=O)c3ccc4c(c3)N(C[C@@H]3CC[C@H]32)C[C@@]2(CCCc3cc(Cl)ccc32)CO4)OC1` (single isomer, unassigned) [Example 26], the results for the IC50 at Mcl-1/Bim interaction and in the assay with OPM-2 (16 h) were 6.16 nM and 14600 nM, respectively.

Take `C[C@@H]1[C@@H](C)CCC[C@@H]([C@H]2OC[C@@H](CN(C)C)O2)[C@@H]2CC[C@H]2CN2C[C@@]3(CCCc4cc(Cl)ccc43)COc3ccc(cc32)C(=O)NS1(=O)=O` (single isomer, unassigned) [Example 29]: the IC50 on Mcl-1/Bim interaction amounted to 0.837 nM; with OPM-2 (16 h) it was 317 nM.

`C[C@@H]1[C@@H](C)CCC[C@@H]([C@H]2OC[C@@H](CN(C)C)O2)[C@@H]2CC[C@H]2CN2C[C@@]3(CCCc4cc(Cl)ccc43)COc3ccc(cc32)C(=O)NS1(=O)=O` (single isomer, unassigned) [Example 30]: the IC50 at Mcl-1/Bim interaction was 5.12 nM; with OPM-2 (16 h), 2440 nM.

On to `C[C@@H]1[C@@H](C)CCC[C@@H]([C@H]2OC[C@H](CN(C)C)O2)[C@@H]2CC[C@H]2CN2C[C@@]3(CCCc4cc(Cl)ccc43)COc3ccc(cc32)C(=O)NS1(=O)=O` (single isomer, unassigned) [Example 33], for which the IC50 at Mcl-1/Bim interaction was 0.612 nM; in the assay with OPM-2 (16 h), 319 nM.

As for `C[C@@H]1[C@@H](C)CCC[C@@H]([C@H]2OC[C@H](CN(C)C)O2)[C@@H]2CC[C@H]2CN2C[C@@]3(CCCc4cc(Cl)ccc43)COc3ccc(cc32)C(=O)NS1(=O)=O` (single isomer, unassigned) [Example 34], the IC50 at Mcl-1/Bim interaction was found to be 11.1 nM; with OPM-2 (16 h), 5830 nM.

As to `CC(=O)N1C[C@@H]2O[C@@H]([C@H]3CCC[C@H](C)[C@@H](C)S(=O)(=O)NC(=O)c4ccc5c(c4)N(C[C@@H]4CC[C@H]43)C[C@@]3(CCCc4cc(Cl)ccc43)CO5)O[C@@H]2C1` (single isomer, unassigned) [Example 39], the IC50 on Mcl-1/Bim interaction came to 0.375 nM; in the assay with OPM-2 (16 h) it was 578 nM.

Take `C[C@@H]1[C@@H](C)CCC[C@@H]([C@H]2OC[C@@H](N3CC(F)C3)CO2)[C@@H]2CC[C@H]2CN2C[C@@]3(CCCc4cc(Cl)ccc43)COc3ccc(cc32)C(=O)NS1(=O)=O` (single isomer, unassigned) [Example 50]: the values for the IC50 on Mcl-1/Bim interaction and in the assay with OPM-2 (16 h) were 0.492 nM and 126 nM, respectively.

As for `C[C@@H]1[C@@H](C)CCC[C@@H]([C@H]2OC[C@@H](N3CC(F)C3)CO2)[C@@H]2CC[C@H]2CN2C[C@@]3(CCCc4cc(Cl)ccc43)COc3ccc(cc32)C(=O)NS1(=O)=O` (single isomer, unassigned) [Example 51], the IC50 came out at 0.754 nM at Mcl-1/Bim interaction and 1010 nM with OPM-2 (16 h).

On to `C[C@@H]1[C@@H](C)CCC[C@@H]([C@H]2OC[C@@H](N3CC(Cl)C3)CO2)[C@@H]2CC[C@H]2CN2C[C@@]3(CCCc4cc(Cl)ccc43)COc3ccc(cc32)C(=O)NS1(=O)=O` (single isomer, unassigned) [Example 55], for which the IC50 on Mcl-1/Bim interaction was 0.742 nM; in the assay on OPM-2 (16 h), 465 nM.
